Source: article PMC3075257, “Evaluation of Multidrug Efflux Pump Inhibitors by a New Method Using Microfluidic Channels” (PLoS ONE, 2011)

Tests used:
Format in all cases: cell-based
AcrAB-TolC = target: T1, AcrAB-TolC (Escherichia coli, UniProt P31224); test: FDG influx and hydrolysis in wild-type against ΔacrB cells, microfluidic channel fluorescence microscopy; details: 100 µg/ml FDG, LB, lactose-induced β-galactosidase, 15 min, 37°C
T1 construct: gene acrB; native chromosomal pump in intact cells, judged against ΔacrB and ΔtolC deletion mutants; with Multidrug efflux pump subunit AcrA; Outer membrane protein TolC

MexAB-OprM = target: T2, MexAB-OprM (Pseudomonas aeruginosa, UniProt P52002); test: fluorescein efflux from E. coli cells loaded with FDG, microfluidic channel fluorescence microscopy; details: ΔBC/pABM against vector control ΔBC/pV, 100 µg/ml FDG, LB, 15 min, 37°C; exported dye formed in the cell from FDG
T2 construct: gene mexB; full-length tripartite RND efflux pump from plasmid pMMB67HE::mexAB-oprM in E. coli MG1655 ΔacrBΔtolC, IPTG-induced; with Multidrug resistance protein MexA; Outer membrane protein OprM

MexXY-OprM = target: T3, MexXY-OprM (Pseudomonas aeruginosa, UniProt G3XCW2); test: as above; details: ΔBC/pXYM against vector control ΔBC/pV, 100 µg/ml FDG, LB, 15 min, 37°C; exported dye formed in the cell from FDG
T3 construct: gene mexY; full-length tripartite RND efflux pump from plasmid pMMB67HE::mexXY-oprM in E. coli MG1655 ΔacrBΔtolC, IPTG-induced; with Multidrug efflux RND transporter periplasmic adaptor subunit MexX; Outer membrane protein OprM

T1 sequence (P0AE06 25-397): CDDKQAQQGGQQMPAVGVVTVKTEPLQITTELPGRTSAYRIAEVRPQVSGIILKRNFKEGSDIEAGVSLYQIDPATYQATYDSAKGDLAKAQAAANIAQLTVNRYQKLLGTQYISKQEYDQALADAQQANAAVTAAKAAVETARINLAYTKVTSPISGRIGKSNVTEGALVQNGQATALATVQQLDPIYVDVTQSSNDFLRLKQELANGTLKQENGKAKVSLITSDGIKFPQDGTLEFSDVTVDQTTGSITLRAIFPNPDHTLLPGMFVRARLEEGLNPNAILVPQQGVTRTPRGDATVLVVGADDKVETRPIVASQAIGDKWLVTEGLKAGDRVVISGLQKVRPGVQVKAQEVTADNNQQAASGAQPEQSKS
T1 sequence (P02930 23-493, further chain): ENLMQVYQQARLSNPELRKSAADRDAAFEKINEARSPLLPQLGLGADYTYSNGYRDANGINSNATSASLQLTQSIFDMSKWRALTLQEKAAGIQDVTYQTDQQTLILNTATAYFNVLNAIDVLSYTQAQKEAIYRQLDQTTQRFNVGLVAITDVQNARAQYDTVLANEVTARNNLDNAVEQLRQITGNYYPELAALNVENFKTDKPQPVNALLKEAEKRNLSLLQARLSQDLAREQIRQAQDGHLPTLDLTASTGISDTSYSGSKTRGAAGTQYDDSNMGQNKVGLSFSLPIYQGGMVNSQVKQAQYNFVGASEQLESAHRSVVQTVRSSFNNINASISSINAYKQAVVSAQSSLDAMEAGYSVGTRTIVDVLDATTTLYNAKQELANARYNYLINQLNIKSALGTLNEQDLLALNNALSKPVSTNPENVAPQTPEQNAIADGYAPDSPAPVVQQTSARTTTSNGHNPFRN
T1 sequence (P31224 whole entry): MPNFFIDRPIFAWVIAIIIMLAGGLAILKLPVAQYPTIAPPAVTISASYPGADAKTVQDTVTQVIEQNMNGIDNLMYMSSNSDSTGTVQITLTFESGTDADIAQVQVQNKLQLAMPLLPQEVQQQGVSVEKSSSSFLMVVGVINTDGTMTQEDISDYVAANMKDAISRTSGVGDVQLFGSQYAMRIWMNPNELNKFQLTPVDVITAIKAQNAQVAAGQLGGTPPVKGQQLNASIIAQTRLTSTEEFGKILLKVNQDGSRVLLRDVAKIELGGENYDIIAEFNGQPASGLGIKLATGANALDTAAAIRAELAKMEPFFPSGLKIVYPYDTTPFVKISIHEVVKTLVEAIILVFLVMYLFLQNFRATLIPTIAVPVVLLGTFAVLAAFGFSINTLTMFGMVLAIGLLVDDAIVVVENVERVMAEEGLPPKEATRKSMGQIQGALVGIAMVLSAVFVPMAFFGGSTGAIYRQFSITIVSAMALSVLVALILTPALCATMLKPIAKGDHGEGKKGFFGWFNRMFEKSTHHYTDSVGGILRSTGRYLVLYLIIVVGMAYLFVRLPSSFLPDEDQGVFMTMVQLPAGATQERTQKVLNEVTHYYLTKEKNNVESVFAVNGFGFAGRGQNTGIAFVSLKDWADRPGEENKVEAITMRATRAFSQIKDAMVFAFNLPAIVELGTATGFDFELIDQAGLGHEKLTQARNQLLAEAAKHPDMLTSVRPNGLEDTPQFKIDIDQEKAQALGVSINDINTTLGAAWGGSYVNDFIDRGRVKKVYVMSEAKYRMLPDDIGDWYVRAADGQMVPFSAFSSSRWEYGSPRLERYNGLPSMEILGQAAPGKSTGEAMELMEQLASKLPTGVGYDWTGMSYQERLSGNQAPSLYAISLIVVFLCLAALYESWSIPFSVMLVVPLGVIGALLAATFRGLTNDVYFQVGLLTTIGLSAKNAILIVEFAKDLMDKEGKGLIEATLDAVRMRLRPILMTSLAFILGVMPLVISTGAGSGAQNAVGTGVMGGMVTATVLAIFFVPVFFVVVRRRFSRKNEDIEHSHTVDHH
T2 sequence (Q51487 18-485): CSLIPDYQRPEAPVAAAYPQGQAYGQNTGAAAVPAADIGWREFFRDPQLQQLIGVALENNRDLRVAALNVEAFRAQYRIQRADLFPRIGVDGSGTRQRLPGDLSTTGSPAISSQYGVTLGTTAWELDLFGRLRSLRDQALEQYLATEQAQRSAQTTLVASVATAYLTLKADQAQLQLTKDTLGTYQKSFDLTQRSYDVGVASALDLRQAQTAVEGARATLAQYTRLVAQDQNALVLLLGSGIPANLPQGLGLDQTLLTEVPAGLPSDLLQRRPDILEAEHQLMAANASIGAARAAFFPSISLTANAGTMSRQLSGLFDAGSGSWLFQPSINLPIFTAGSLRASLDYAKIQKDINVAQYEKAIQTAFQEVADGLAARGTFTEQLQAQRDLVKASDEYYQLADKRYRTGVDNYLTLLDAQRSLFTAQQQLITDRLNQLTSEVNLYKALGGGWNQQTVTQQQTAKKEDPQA
T2 sequence (P52477 24-383, further chain): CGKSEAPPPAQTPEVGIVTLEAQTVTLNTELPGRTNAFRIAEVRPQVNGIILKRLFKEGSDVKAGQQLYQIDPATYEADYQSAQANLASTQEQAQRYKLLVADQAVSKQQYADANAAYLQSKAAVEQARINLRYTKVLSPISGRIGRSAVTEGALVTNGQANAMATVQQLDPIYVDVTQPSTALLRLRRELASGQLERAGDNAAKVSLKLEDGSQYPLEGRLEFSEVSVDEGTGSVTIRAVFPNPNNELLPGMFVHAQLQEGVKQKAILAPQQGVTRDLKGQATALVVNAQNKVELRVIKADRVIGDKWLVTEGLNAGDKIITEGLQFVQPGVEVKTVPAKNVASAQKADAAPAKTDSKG
T2 sequence (P52002 whole entry): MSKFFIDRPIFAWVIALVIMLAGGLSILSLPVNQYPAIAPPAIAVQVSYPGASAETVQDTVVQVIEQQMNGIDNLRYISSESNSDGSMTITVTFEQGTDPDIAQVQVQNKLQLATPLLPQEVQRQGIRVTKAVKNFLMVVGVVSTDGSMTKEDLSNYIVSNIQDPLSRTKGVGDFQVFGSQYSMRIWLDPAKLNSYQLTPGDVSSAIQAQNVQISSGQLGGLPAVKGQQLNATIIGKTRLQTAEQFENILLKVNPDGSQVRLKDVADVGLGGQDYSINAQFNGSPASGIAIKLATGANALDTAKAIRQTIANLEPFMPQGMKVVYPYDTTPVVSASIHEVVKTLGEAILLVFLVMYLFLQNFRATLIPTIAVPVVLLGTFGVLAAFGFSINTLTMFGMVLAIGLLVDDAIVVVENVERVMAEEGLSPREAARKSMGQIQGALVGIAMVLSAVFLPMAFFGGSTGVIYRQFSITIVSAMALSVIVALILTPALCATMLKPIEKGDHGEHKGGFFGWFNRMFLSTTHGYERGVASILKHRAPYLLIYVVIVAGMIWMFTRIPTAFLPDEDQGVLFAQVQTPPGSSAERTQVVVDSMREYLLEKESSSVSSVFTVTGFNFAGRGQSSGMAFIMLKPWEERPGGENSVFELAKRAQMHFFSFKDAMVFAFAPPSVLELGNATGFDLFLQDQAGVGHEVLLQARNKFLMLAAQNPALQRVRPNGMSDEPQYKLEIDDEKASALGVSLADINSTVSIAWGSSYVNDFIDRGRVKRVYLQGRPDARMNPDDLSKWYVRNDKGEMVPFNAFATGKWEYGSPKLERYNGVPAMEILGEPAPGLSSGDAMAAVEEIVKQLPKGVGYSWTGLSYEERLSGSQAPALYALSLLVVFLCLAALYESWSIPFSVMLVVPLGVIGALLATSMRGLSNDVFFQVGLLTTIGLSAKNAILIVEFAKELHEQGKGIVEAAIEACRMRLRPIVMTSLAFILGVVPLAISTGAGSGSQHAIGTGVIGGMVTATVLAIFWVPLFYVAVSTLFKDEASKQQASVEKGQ

O=C1OC2(c3ccc(O[C@@H]4O[C@H](CO)[C@H](O)[C@H](O)[C@H]4O)cc3Oc3cc(O[C@@H]4O[C@H](CO)[C@H](O)[C@H](O)[C@H]4O)ccc32)c2ccccc21 [Fluorescein-di-β-D-galactopyranoside]
FDG influx and hydrolysis in wild-type against ΔacrB cells, microfluidic channel (AcrAB-TolC): AcrAB-TolC and the analogous RND pumps effectively prevented FDG influx in E. coli wild-type cells

O=C1OC2(c3ccc(O)cc3Oc3cc(O)ccc32)c2ccccc21 [fluorescein]
fluorescein efflux from E. coli cells loaded with FDG, microfluidic channel fluo (MexAB-OprM): The fluorescent medium was observed in ΔBC carrying pABM or pXYM | fluorescein efflux from E. coli cells loaded with FDG, microfluidic channel fluo (MexXY-OprM): The fluorescent medium was observed in ΔBC carrying pABM or pXYM
